Measurements as given in patent publication US7642251B2, “Compounds for the treatment of hepatitis C” (Bristol-Myers Squibb Company, priority 2007, dated 2010).
pEC50, pIC50: −log10 of the molar value. Like-named read-outs stand apart in the source and are kept apart here.

Columns and labels:
HCV NS5B = target: T1, HCV NS5B (Hepatitis C virus genotype 1b, UniProt Q9WMX2); assay: Modified HCV NS5B RdRp enzyme assay (preincubation protocol); format: biochemical
T1 construct: The cDNA encoding the NS5B protein of HCV, genotype 1b; made in house; host or cells: E. coli BL21(DE3)
Method: HCV NS5B RdRp cloning, expression, and purification. The cDNA encoding the NS5B protein of HCV, genotype 1b, was cloned into the pET21a expression vector. The protein was expressed with an 18 amino acid C-terminal truncation to enhance the solubility. The E. coli competent cell line BL21(DE3) was used for expression of the protein. Cultures were grown at 37° C. for ˜4 hours until the cultures reached an optical density of 2.0 at 600 nm. The cultures were cooled to 20° C. and induced with 1 mM IPTG. Fresh ampicillin was added to a final concentration of 50 μg/ml and the cells were grown overnight at 20° C.
Cell pellets (3 L) were lysed for purification to yield 15-24 mgs of purified NS5B. The lysis buffer consisted of 20 mM Tris-HCl, pH 7.4, 500 mM NaCl, 0.5% triton X-100, 1 mM DTT, 1 mM EDTA, 20% glycerol, 0.5 mg/ml lysozyme, 10 mM MgCl2, 15 ug/ml deoxyribonuclease I, and Complete™ protease inhibitor tablets (Roche). After addition of the lysis buffer, frozen cell pellets were resuspended using a tissue homogenizer. To reduce the viscosity of the sample, aliquots of the lysate were sonicated on ice using a microtip attached to a Branson sonicator. The sonicated lysate was centrifuged at 100,000×g for 1 hr at 4° C. and filtered through a 0.2 μm filter unit (Corning).
The protein was purified using three sequential chromatography steps: Heparin sepharose CL-6B, polyU sepharose 4B, and Hitrap SP sepharose (Pharmacia). The chromatography buffers were identical to the lysis buffer but contained no lysozyme, deoxyribonuclease I, MgCl2 or protease inhibitor and the NaCl concentration of the buffer was adjusted according to the requirements for charging the protein onto the column. Each column was eluted with a NaCl gradient which varied in length from 5-50 column volumes depending on the column type. After the final chromatography step, the resulting purity of the enzyme is >90% based on SDS-PAGE analysis. The enzyme was aliquoted and stored at −80° C.
Standard HCV NS5B RdRp enzyme assay. HCV RdRp genotype 1b assays were run in a final volume of 60 μl in 96 well plates (Costar 3912). The assay buffer is composed of 20 mM Hepes, pH 7.5, 2.5 mM KCl, 2.5 mM MgCl2, 1 mM DTT, 1.6 U RNAse inhibitor (Promega N2515), 0.1 mg/ml BSA (Promega R3961), and 2% glycerol. All compounds were serially diluted (3-fold) in DMSO and diluted further in water such that the final concentration of DMSO in the assay was 2%. HCV RdRp genotype 1b enzyme was used at a final concentration of 28 nM. A polyA template was used at 6 nM, and a biotinylated oligo-dT12 primer was used at 180 nM final concentration. Template was obtained commercially (Amersham 27-4110). Biotinylated primer was prepared by Sigma Genosys. 3H-UTP was used at 0.6 μCi (0.29 μM total UTP). Reactions were initiated by the addition of enzyme, incubated at 30° C. for 60 min, and stopped by adding 25 μl of 50 mM EDTA containing SPA beads (4 μg/μl, Amersham RPNQ 0007). Plates were read on a Packard Top Count NXT after >1 hr incubation at room temperature.
Modified HCV NS5B RdRp enzyme assay. A modified enzyme assay was performed essentially as described for the standard enzyme assay except for the following: The biotinylated oligo dT12 primer was precaptured on streptavidin-coated SPA beads by mixing primer and beads in assay buffer and incubating at room temperature for one hour. Unbound primer was removed after centrifugation. The primer-bound beads were resuspended in 20 mM Hepes buffer, pH 7.5 and used in the assay at final concentrations of 20 nM primer and 0.67 μg/μl beads. Order of addition in the assay: enzyme (14 nM) was added to diluted compound followed by the addition of a mixture of template (0.2 nM), 3H-UTP (0.6 μCi, 0.29 μM), and primer-bound beads, to initiate the reaction; concentrations given are final. Reactions were allowed to proceed for 4 hours at 30° C.
IC50 values for compounds were determined using seven different [I]. […]

HCV replicon cells = assay: HCV replicon FRET assay; format: cell-based; conditions: Hepatitis C virus
Source text: FRET Assay Preparation. To perform the HCV FRET screening assay, 96-well cell culture plates were used. The FRET peptide (Anaspec, Inc.) (Taliani et al., Anal. Biochem. 1996, 240, 60-67) contains a fluorescence donor, EDANS, near one end of the peptide and an acceptor, DABCYL, near the other end. The fluorescence of the peptide is quenched by […] resonance energy transfer (RET) between the donor and the acceptor, but as the NS3 protease cleaves the peptide the products are released from RET quenching and the fluorescence of the donor becomes apparent. The assay reagent was made as follows: 5× cell Luciferase cell culture lysis reagent from Promega (#E153A) diluted to 1× with dH2O, NaCl added to 150 mM final, the FRET peptide diluted to 20 μM final from a 2 mM stock.
To prepare plates, HCV replicon cells, with or without a Renilla luciferase reporter gene, were trypsinized and placed into each well of a 96-well plate with titrated test compounds added in columns 3 through 12; columns 1 and 2 contained a control compound (HCV protease inhibitor), and the bottom row contained cells without compound. The plates were then placed in a CO2 incubator at 37° C.
Assays. Subsequent to addition of the test compounds described above (FRET Assay Preparation), at various times the plate was removed and Alamar blue solution (Trek Diagnostics, #00-100) was added per well as a measure of cellular toxicity. After reading in a Cytoflour 4000 instrument (PE Biosystems), plates were rinsed with PBS and then used for FRET assay by the addition of 30 ul of the FRET peptide assay reagent described above (FRET Assay Preparation) per well. The plate was then placed into the Cytoflour 4000 instrument which had been set to 340 excite/490 emission, automatic mode for 20 cycles and the plate read in a kinetic mode. Typically, the signal to noise using an endpoint analysis after the reads was at least three-fold. Alternatively, after Alamar blue reading, plates were rinsed with PBS, 50 ul of DMEM (high glucose) without phenol red was added and plates were then used for luciferase assay using the Promega Dual-Glo Luciferase Assay System.
Compound analysis was determined by quantification of the relative HCV replicon inhibition and the relative cytotoxicity values. To calculate cytoxicity values, the average Alamar Blue fluorescence signals from the control wells were set as 100% non-toxic. The individual signals in each of the compound test wells were then divided by the average control signal and multiplied by 100% to determine […]. To calculate the HCV replicon inhibition values, an average background value was obtained from the two wells containing the highest amount of HCV protease inhibitor at the end of the assay period. These numbers were similar to those obtained from naïve Huh-7 cells.
The background numbers were then subtracted from the average signal obtained from the control wells and this number was used as 100% activity. The individual signals in each of the compound test wells were then divided by the averaged control values after background subtraction and multiplied by 100% to determine percent activity. EC50 values for a protease inhibitor titration were calculated as the concentration which caused a 50% reduction in FRET or luciferase activity. The two numbers generated for the compound plate, percent cytoxicity and percent activity were used to determine compounds of interest for further analysis.

[1] = preincubation protocol, read-out: IC50

T1 sequence (Q9WMX2 2420-2992): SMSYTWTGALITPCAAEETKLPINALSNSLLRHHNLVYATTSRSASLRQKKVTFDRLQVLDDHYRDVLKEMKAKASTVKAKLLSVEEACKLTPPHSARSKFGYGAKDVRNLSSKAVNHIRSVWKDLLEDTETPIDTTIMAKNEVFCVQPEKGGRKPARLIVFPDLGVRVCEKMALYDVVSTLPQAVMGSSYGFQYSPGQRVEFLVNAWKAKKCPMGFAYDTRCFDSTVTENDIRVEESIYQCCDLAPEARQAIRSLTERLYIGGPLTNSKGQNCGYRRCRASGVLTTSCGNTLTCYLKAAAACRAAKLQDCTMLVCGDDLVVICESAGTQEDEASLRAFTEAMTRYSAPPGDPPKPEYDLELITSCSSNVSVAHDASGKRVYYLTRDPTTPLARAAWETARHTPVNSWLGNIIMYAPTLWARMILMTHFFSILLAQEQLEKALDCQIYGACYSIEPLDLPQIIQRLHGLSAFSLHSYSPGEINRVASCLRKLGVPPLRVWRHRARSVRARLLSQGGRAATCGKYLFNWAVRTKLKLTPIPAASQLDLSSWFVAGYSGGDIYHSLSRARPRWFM

Row | Structure (SMILES) | pIC50 (HCV NS5B; [1]) | pEC50 (HCV replicon cells; FRET assay, read-out: EC50) | pIC50 (HCV NS5B) | pEC50 (HCV replicon cells)
1 | COc1ccc2c(c1)C=C(c1ccccc1NC(=O)C1CC1)Cn1c-2c(C2CCCCC2)c2ccc(C(=O)NS(=O)(=O)C(C)C)cc21 | 6.30 to 8.34 | 6.30 to 8.34 | – | –
2 | COc1ccc2c(c1)C=C(c1ccccc1C(=O)N1C3CCC1CN(C)C3)Cn1c-2c(C2CCCCC2)c2ccc(C(=O)OC(C)(C)C)cc21 | – | – | < 6.30 | < 6.30
3 | COc1ccc2c(c1)C=C(c1cccc3c1OCCO3)Cn1c-2c(C2CCCCC2)c2ccc(C(=O)NS(=O)(=O)C(C)C)cc21 | 6.30 to 8.34 | < 6.30 | – | –
